Results taken from patent US20120202231A1, “SYNERGISTIC BIOMARKER ASSAY OF NEUROLOGICAL CONDITION USING S-100B” (priority 2009, published 2012).

System: Female Sprague-Dawley rats
Details: for GFAP level relative to control animals / S-100b level relative to control animals / UCH-L1 level relative to control animals: rats, biofluids, 30, 60, 90, 120 min after dosing
Experimental: Acute oral In vivo drug candidate screening for neurotoxicity. […] A total of four to eight animals of are used for each dose level investigated.
At 30, 60, 90, and 120 minutes following dosing, the rats are sacrificed by decapitation and blood is obtained by cardiac puncture. The levels of biofluids S-100β, UCH-L1, and GFAP are analyzed by sandwich ELISA or western blot by using biomarker specific antibodies.

Row | SMILES | GFAP level relative to control animals | S-100b level relative to control animals | UCH-L1 level relative to control animals | CSF concentration of GFAP relative to control animals (rat, in vivo) | CSF concentration of UCH-L1 relative to control animals (rat, in vivo)
1 | N.N.[Cl][Pt][Cl] [Cisplatin, cisplatin] | increase | increase | increase |  | 
2 | CN1CC=C(c2ccccc2)CC1 [MPTP] | increase | increase | increase |  | 
3 | C=C(C)[C@H]1CN[C@H](C(=O)O)[C@H]1CC(=O)O [kainic acid] | increase | increase | increase |  | 
4 | CN[C@@H](C)Cc1ccccc1 [methamphetamine] |  | Modest increase |  | increase | increase
